Data as given in US6872827B2, “Somatostatin analogue compounds” (Chembridge Research Laboratories, Inc., priority 2002, dated 2005).
Where “and” joins values, the source holds several entries; their conditions need not be identical. Identical values can stand only once. Like-named read-outs stand apart in the source and are kept apart here.

What was measured:
Somatostatin sst1 = molecular target: T1, Somatostatin sst1 (Homo sapiens, UniProt P30872); assay: Somatostatin sst1 radioligand binding assay; conditions: for inhibition at 10 µM / % inh: Conc 10 μM
T1 construct: host or cells: CHO-K1
T1 sequence (P30872 whole entry): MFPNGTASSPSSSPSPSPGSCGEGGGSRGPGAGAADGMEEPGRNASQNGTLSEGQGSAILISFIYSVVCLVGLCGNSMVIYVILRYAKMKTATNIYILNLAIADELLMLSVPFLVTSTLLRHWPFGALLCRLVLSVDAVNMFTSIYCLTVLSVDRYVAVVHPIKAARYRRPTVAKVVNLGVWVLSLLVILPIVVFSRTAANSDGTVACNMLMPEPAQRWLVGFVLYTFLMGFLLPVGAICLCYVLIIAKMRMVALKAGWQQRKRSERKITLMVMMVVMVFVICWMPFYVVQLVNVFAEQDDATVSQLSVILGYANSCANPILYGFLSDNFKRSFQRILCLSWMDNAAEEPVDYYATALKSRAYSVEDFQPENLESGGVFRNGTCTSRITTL
Description: (§1) Compounds of the present invention were assessed for their binding affinity to sst1, sst3, and sst4 receptors by biochemical and radioligand assay according to the following procedures. The assays were conducted by MDS Pharma Services—Taiwan Ltd., Pharmacology Laboratories, 158 Li-The Road, Peitou, Taipei, Taiwan 112, R.O.C.
The protocol for sstl assay was adapted from Liapakis, G., Fitzpatrick, D., Hoeger, C., Rivier, J., Vandlen, R. and Reisine, T. (1996) “Identification of ligand binding determinants in the somatostatin receptor subtypes 1 and 2.”J. Biol. Chem. 271(24): 20331-20339, 1996; and Patel, Y. C. and Srikant, C. B. (1994) “Subtype selectivity of peptide analogs for all five cloned human somatostatin receptors (hsstr 1-5).” Endocrinology 135 (6): 2814-2817, 1994. The protocol were and can be conducted according to the following conditions.
(§2) IC50 values were determined by a non-linear, least squares regression analysis using Data Analysis Toolbox™ (MDL Information Systems, San Leandro, Calif., USA). Where inhibition constants (Ki) are presented, the Ki values were calculated using the equation of Cheng and Prusoff (Cheng, Y., Prusoff, W. H., Biochem. Pharmacol. 22:3099-3108, 1973) using the observed IC50 of the tested compound, the concentration of the radioligand employed in the assay, and the historical values for the Kd of the ligand (obtained experimentally at MDS Pharma Services). Where presented, the Hill coefficient (nH), defining the slope of the competitive binding curve, was calculated using Data Analysis Toolbox™. […] Where IC50, Ki and/or nH data are presented without Standard Error of the Mean (SEM), data are insufficient to be quantitative, and the values presented (Ki, IC50, nH) should be interpreted accordingly.

Somatostatin sst 3 = molecular target: T2, Somatostatin sst 3 (Homo sapiens, UniProt P32745); assay: Somatostatin sst3 radioligand binding assay; conditions: for inhibition at 10 µM / % inh: Conc 10 μM (Conc not given in some rows)
T2 construct: host or cells: CHO-K1
T2 sequence (P32745 whole entry): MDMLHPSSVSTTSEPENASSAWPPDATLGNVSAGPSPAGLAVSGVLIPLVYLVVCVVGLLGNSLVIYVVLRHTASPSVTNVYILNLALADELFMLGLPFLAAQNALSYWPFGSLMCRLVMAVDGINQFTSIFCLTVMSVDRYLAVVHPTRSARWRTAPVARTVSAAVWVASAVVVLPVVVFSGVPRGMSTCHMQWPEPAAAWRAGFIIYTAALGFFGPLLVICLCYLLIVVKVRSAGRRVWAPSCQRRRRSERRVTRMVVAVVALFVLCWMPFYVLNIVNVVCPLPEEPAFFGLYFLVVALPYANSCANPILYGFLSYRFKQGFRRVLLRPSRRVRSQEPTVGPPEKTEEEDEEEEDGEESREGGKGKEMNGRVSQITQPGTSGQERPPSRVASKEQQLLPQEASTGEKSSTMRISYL
Description: as §1
The protocol for sst3 assay was adapted from Liapakis, G., Fitzpatrick, D., Hoeger, C., Rivier, J., Vandlen, R. and Reisine, T. (1996) “Identification of ligand binding determinants in the somatostatin receptor subtypes 1 and 2.”J. Biol. Chem. 271(24): 20331-20339, 1996; and Patel, Y. C. and Srikant, C. B. (1994) “Subtype selectivity of peptide analogs for all five cloned human somatostatin receptors (hsstr 1-5).” Endocrinology 135 (6): 2814-2817, 1994. The protocol were and can be conducted according to the following conditions.
as §2

Somatostatin sst4 = molecular target: T3, Somatostatin sst4 (Homo sapiens, UniProt P31391); assay: Somatostatin sst4 radioligand binding assay; conditions: for inhibition at 10 µM / % inh: Conc 10 μM (Conc not given in some rows)
T3 construct: host or cells: CHO-K1
T3 sequence (P31391 whole entry): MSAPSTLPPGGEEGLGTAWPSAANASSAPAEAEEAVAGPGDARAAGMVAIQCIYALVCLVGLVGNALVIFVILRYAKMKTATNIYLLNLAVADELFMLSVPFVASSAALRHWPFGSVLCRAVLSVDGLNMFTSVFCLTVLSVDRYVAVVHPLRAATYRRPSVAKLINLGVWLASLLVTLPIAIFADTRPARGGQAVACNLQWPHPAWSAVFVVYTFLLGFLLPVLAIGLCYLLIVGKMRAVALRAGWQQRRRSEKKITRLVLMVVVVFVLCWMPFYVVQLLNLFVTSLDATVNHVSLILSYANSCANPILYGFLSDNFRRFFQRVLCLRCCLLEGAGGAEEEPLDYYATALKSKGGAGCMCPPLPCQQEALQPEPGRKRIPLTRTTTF
Description: as §1
The protocol for sst4 assay was adapted from Patel, Y. C. and Srikant, C. B. (1994) “Subtype selectivity of peptide analogs for all five cloned human somatostatin receptors (hsstr 1-5).” Endocrinology 135 (6): 2814-2817, 1994. The protocol were and can be conducted according to the following conditions.
as §2

Sst5 = molecular target: T4, Sst5 (Cavia porcellus, UniProt H0W1F1); assay: Sst5 (functional) assay, Vas def gp; conditions: Table 4, Conc 30 μM; for activation at 30 µM: read-out: % Ag
T4 sequence (H0W1F1 1-365): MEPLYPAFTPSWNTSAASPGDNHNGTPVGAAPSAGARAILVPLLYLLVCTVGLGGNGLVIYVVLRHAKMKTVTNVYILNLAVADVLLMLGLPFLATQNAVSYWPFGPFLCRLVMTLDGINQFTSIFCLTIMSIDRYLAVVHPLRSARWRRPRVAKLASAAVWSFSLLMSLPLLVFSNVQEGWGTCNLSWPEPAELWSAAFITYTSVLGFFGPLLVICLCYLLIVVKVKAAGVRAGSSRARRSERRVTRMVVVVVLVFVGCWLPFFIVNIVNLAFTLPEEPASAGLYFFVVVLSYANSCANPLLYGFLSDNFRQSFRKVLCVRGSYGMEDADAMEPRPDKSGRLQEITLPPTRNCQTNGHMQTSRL

[1] = Hill coefficient of competitive binding curve

Row | Compound | IC50 (Somatostatin sst1; Table 4, human) [µM] | Ki (Somatostatin sst1; Table 4, human) [µM] | nH (Somatostatin sst1; Table 4, human) | inhibition at 10 µM (Somatostatin sst1; Table 4, human) [%] | IC50 (Somatostatin sst 3; Table 4, human) [µM] | Ki (Somatostatin sst 3; Table 4, human) [µM] | nH (Somatostatin sst 3; Table 4, human) | inhibition at 10 µM (Somatostatin sst 3; Table 4, human) [%] | IC50 (Somatostatin sst4; Table 4, human) [µM] | Ki (Somatostatin sst4; Table 4, human) [µM] | nH (Somatostatin sst4; Table 4, human) | inhibition at 10 µM (Somatostatin sst4; Table 4, human) [%] | further results
1 | Cc1ccc(Oc2ccc3c(c2)N(CCCCN)CCC32C(=O)N(CCc3c[nH]c4ccccc34)C(=O)N2C)cc1 (stereo not drawn) [H, 7-Tolyloxy-3′-4′-dihydro-2H-quinoline-1-(4-amino-butan-1yl)-4-spiro-5′-1′-methyl-3′[2-(1H-indol-3-yl)-ethyl]-imidazolidine-2′4′-dione] | 1.24 | 1.18 | 1.38 | 66 | 7.58 | 6.73 | 0.922 | 57 | 0.649 | 0.57 | 1 | 68 | 
2 | Cc1ccc(Oc2ccc3c(c2)N(CCCCN)CCC32C(=O)N(CCc3c[nH]c4ccccc34)C(=O)N2C)cc1C (stereo not drawn) [I] | 3.38 | 3.21 | 0.598 | 66 | 7.96 | 7.06 | 0.977 | 56 | 2.62 | 2.3 | 1.16 | 71 | 
3 | CN1C(=O)N(Cc2c[nH]c3ccccc23)C2(CCN(CCCCN)c3cc(Oc4ccccc4)ccc32)C1=O (stereo not drawn) [Compound B, 7-phenoxy-3,4-dihydro-2H-quinoline-1-(4-butylamine)-4-spiro-5′-1′-(1H-indol-3-ylmethyl)-3′-methyl-imidazolidine-2′,4′-dione] |  |  | 0.62 | 57 |  |  | 0.722 | 60 |  |  |  | 39 | IC50 (Somatostatin sst1): 3.25 µM; Ki (Somatostatin sst1; Cheng-Prusoff from IC50): 3.09 µM; nH (Somatostatin sst1; [1]): 0.62; IC50 (Somatostatin sst 3): 5.84 µM; Ki (Somatostatin sst 3; Cheng-Prusoff from IC50): 5.18 µM; nH (Somatostatin sst 3; [1]): 0.722
4 | CN1C(=O)N(Cc2c[nH]c3ccccc23)C(=O)C12CCN(C(=O)CCCN)c1cc(Oc3ccccc3)ccc12 (stereo not drawn) [Compound A, 7-phenoxy-3,4-dihydro-2H-quinoline-1-(4-amino-butanonyl)-4-spiro-5′-1′-methyl-3′-(1H-indol-3-ylmethyl)-imidazolidine-2′,4′-dione] |  |  | 0.433 | 54 |  |  | 0.564 | 56 |  |  | 0.504 | 50 | IC50 (Somatostatin sst1): 6.39 µM; Ki (Somatostatin sst1; Cheng-Prusoff from IC50): 6.07 µM; nH (Somatostatin sst1; [1]): 0.433; IC50 (Somatostatin sst 3): 6.59 µM; Ki (Somatostatin sst 3; Cheng-Prusoff from IC50): 5.85 µM; nH (Somatostatin sst 3; [1]): 0.564; IC50 (Somatostatin sst4): 6 µM; Ki (Somatostatin sst4; Cheng-Prusoff from IC50): 5.27 µM; nH (Somatostatin sst4; [1]): 0.504; activation at 30 µM (Sst5): 61%
5 | Somatostatin-14 [reference compound] |  |  |  |  |  |  |  |  |  |  |  |  | nH (Somatostatin sst1; [1]): 0.628 and 0.747; nH (Somatostatin sst 3; [1]): 0.73 and 0.775; nH (Somatostatin sst4; [1]): 1.02
6 | 7-(4-methoxy-phenoxy)-3,4-dihydro-2H-quinoline-1-(4-aminobutyl-1-yl-)-4-spiro-5′-1′-methy-3′-[2-(1H-indol-3-yl-ethyl]-imidazoline-2′4′-dione [G] |  |  | 0.67 |  |  |  | 0.985 |  |  |  | 0.786 |  | % inh (Somatostatin sst1; Table 4, human): 64%; % inh (Somatostatin sst 3; Table 4, human): 60%; % inh (Somatostatin sst4; Table 4, human): 68%
7 | CN1C(=O)N(Cc2c[nH]c3ccccc23)C2(CCN(C(=O)CCCN)c3cc(Oc4ccccc4)ccc32)C1=O (stereo not drawn) [C, 7-phenoxy-3,4-dihydro-2H-quinoline-1-(4-amino-butyl-1-one)-4-spiro-5′-1′-(1H-indol-3-ylmethyl)-3′-methyl-imidazoline-2′,4′-dione] |  |  |  |  |  |  |  |  |  |  |  |  | % inh (Somatostatin sst1; Table 4, human): 24%; % inh (Somatostatin sst 3; Table 4, human): 25%; % inh (Somatostatin sst4; Table 4, human): 32%
8 | 7-Phenoxy-3′-4′-dihydro-2H-quinoline 1-(methylpiperidine-4-yl)-4-spiro-5′-1′-(1H-indole-3yl-methyl)-3′-methyl-imidazoline-2′-4′-dione |  |  | 1.16 |  |  |  | 1.3 |  |  |  | 1.37 |  | % inh (Somatostatin sst1; Table 4, human): 89%; % inh (Somatostatin sst 3; Table 4, human): 86%; % inh (Somatostatin sst4; Table 4, human): 89%
9 | CN1C(=O)N(CCc2c[nH]c3ccccc23)C(=O)C12CCN(CCCCN)c1cc(Oc3ccc4c(c3)OCO4)ccc12 (stereo not drawn) [J, 7-(Benzo-[1,3]-dioxol-5-yloxy)-3′-4′-dihydro-2H-quinoline-1-(4-amino-butan-1yl)-4-spiro-5′-1′-methyl-3′[2-(-1H-indol-3-yl)-ethyl]-imidazolidine-2′4′-dione] | 0.699 | 0.664 | 1.28 | 69 | 3.71 | 3.29 | 0.915 | 72 | 0.754 | 0.663 | 1.25 | 72 | activation at 30 µM (Sst5): -11%; inhibition at 30 µM (Sst5; guinea pig, read-out: % Ant): 1%
10 | Cc1ccc(Oc2ccc3c(c2)N(CCCCN)CCC32C(=O)N(C)C(=O)N2Cc2c[nH]c3ccccc23)cc1 (stereo not drawn) [D, 7-Tolyloxy-3′-4′-dihydro-2H-quinoline-1-(aminobutan-1yl)-4-spiro-5′-1′-(1H-indol-3-yl-methyl)-3′methyl-imidazolidine-2′4′-dione] | 0.807 | 0.767 | 0.654 | 84 | 7.05 | 6.26 | 2.34 | 68 | 5.13 | 4.51 | 1.15 | 68 | 
11 | CN1C(=O)N(CCc2c[nH]c3ccccc23)C(=O)C12CCN(CCCCN)c1cc(O)ccc12 (stereo not drawn) [F] | 1.32 | 1.25 | 0.992 | 87 |  |  |  |  |  |  |  |  | 
